{"source": "patent EP4571306A1", "about": "“STABILIZING OXYGEN IN A COMPOSITION” (priority 2023, dated 2025)", "experimental": "To test for sensor stability and performance, a cartridge use life test was completed after one month of cartridge shelf-life and then repeated after eight months of cartridge shelf-life.\nAdditionally, reagent performance on the GEM® Premier™ 5000 system was evaluated based on drift of parameters for assays performed on the GEM® Premier™ 5000 system. Drift for each assay parameter constitutes a deviation of measured results for each assay parameter from its factory assigned target. For example, ρO2 was measured several times during cartridge use at a defined frequency on the GEM® Premier™ 5000, and the drift was calculated for each measurement as the difference between measured […] for a composition and the ρO2 assigned to the composition at manufacture.\nIn this experiment, the control containers were confirmed to contain limited or no metal contamination (e.g., in parts-per-billion, cobalt 0.10, chromium 2.24, copper 0.64, iron 3.23, and manganese 0.63). The limits columns represents the maximum change that can occur during composition shelf-life according to the GEM® Premier™ 5000 design specifications."}
{"smiles": "C[C@H]1COc2c(N3CCN(C)CC3)c(F)cc3c(=O)c(C(=O)O)cn1c23", "note": "[levofloxacin]", "values": [{"measurement": "effect on sensor performance and the performance and stability of the compositions", "value": "does not negatively affect sensor performance"}]}
